We go through 5 compounds from the supplement of paper PMC10307832.

One assay relates to NCI-H1563. Briefly: relative viability (nuclei count vs DMSO), 5 days (fraction); higher = more cells survive. The note with it: first compound 0.2 µM. The method in brief: (§1)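 Lung cancer cell lines were seeded in 1536-well plates and dosed by pin tool the next day, with either a single drug or a fixed anchor-drug dose combined with five library-drug doses (not always all listed) spaced in √10 steps. Five days later, one step fixed the cells and stained their nuclei (final 0.05% Triton X-100, 1% formaldehyde, 1 ug/ml Hoechst), and nuclei were counted on 4× images. Relative viability is the nuclei count in treated wells divided by the count in vehicle wells, and each value is the median of duplicate plates.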
`COCC1(CO)C(=O)C2CCN1CC2` (stereo not given) [PRIMA-1MET] + CC(C)C[C@H](NC(=O)[C@H](Cc1ccccc1)NC(=O)c1cnccn1)B(O)O [Bortezomib] (partner 0.002 µM) came in with a relative viability of 0.945.
Still for that read-out and setting: in the case of `COCC1(CO)C(=O)C2CCN1CC2` (stereo not given) [PRIMA-1MET] + C[C@@H](Oc1cc(-c2cnn(C3CCNCC3)c2)cnc1N)c1c(Cl)ccc(F)c1Cl [Crizotinib] (partner 1 µM) it was 0.887.

The same assay, now with this note: first compound 0.6325 µM.
On to `COCC1(CO)C(=O)C2CCN1CC2` (stereo not given) [PRIMA-1MET] + CC(C)C[C@H](NC(=O)[C@H](Cc1ccccc1)NC(=O)c1cnccn1)B(O)O [Bortezomib] (partner 0.002 µM), for which the relative viability is 0.822.
Still for that read-out and setting: as for `COCC1(CO)C(=O)C2CCN1CC2` (stereo not given) [PRIMA-1MET] + C[C@@H](Oc1cc(-c2cnn(C3CCNCC3)c2)cnc1N)c1c(Cl)ccc(F)c1Cl [Crizotinib] (partner 1 µM), the figure is 0.806.

The same assay, now with this note: first compound 2 µM.
As for `COCC1(CO)C(=O)C2CCN1CC2` (stereo not given) [PRIMA-1MET] + CC(C)C[C@H](NC(=O)[C@H](Cc1ccccc1)NC(=O)c1cnccn1)B(O)O [Bortezomib] (partner 0.002 µM), the relative viability was determined as 0.635.
On the same count and under the same terms, as for `COCC1(CO)C(=O)C2CCN1CC2` (stereo not given) [PRIMA-1MET] + C[C@@H](Oc1cc(-c2cnn(C3CCNCC3)c2)cnc1N)c1c(Cl)ccc(F)c1Cl [Crizotinib] (partner 1 µM), the figure is 0.868.

Staying with this assay, now noted: first compound 6.325 µM.
On to `COCC1(CO)C(=O)C2CCN1CC2` (stereo not given) [PRIMA-1MET] + CC(C)C[C@H](NC(=O)[C@H](Cc1ccccc1)NC(=O)c1cnccn1)B(O)O [Bortezomib] (partner 0.002 µM), for which the relative viability is 1.15.
The same measure, in the same setting: in the case of `COCC1(CO)C(=O)C2CCN1CC2` (stereo not given) [PRIMA-1MET] + C[C@@H](Oc1cc(-c2cnn(C3CCNCC3)c2)cnc1N)c1c(Cl)ccc(F)c1Cl [Crizotinib] (partner 1 µM) it was 0.843.

The same assay, now with this note: first compound 20 µM.
`COCC1(CO)C(=O)C2CCN1CC2` (stereo not given) [PRIMA-1MET] + CC(C)C[C@H](NC(=O)[C@H](Cc1ccccc1)NC(=O)c1cnccn1)B(O)O [Bortezomib] (partner 0.002 µM): the relative viability was 0.386.
Same read-out and setting: as for `COCC1(CO)C(=O)C2CCN1CC2` (stereo not given) [PRIMA-1MET] + C[C@@H](Oc1cc(-c2cnn(C3CCNCC3)c2)cnc1N)c1c(Cl)ccc(F)c1Cl [Crizotinib] (partner 1 µM), the figure is 0.262.

A further assay concerns NCI-H1993. The assay is described as above. The conditions noted are these: first compound 0.2 µM. An outline of the steps:
as §1
With `COCC1(CO)C(=O)C2CCN1CC2` (stereo not given) [PRIMA-1MET] + CC(C)C[C@H](NC(=O)[C@H](Cc1ccccc1)NC(=O)c1cnccn1)B(O)O [Bortezomib] (partner 0.002 µM), the relative viability was 1.21.
Still for that read-out and setting: in the case of `COCC1(CO)C(=O)C2CCN1CC2` (stereo not given) [PRIMA-1MET] + CC(=O)Nc1cccc(-n2c(=O)n(C3CC3)c(=O)c3c(Nc4ccc(I)cc4F)n(C)c(=O)c(C)c32)c1 [Trametinib] (partner 0.02 µM) it was 0.619; in that of `COCC1(CO)C(=O)C2CCN1CC2` (stereo not given) [PRIMA-1MET] + Nc1ncn([C@H]2C[C@H](O)[C@@H](CO)O2)c(=O)n1 [Decitabine] (partner 2 µM), 0.57; in that of `COCC1(CO)C(=O)C2CCN1CC2` (stereo not given) [PRIMA-1MET] + O=C(c1cc(Cc2n[nH]c(=O)c3ccccc23)ccc1F)N1CCN(C(=O)C2CC2)CC1 [Olaparib] (partner 8 µM), 1.21.
On the same count and under the same terms, as for `COCC1(CO)C(=O)C2CCN1CC2` (stereo not given) [PRIMA-1MET] + C[C@@H](Oc1cc(-c2cnn(C3CCNCC3)c2)cnc1N)c1c(Cl)ccc(F)c1Cl [Crizotinib] (partner 1 µM), the figure is 1.14.

Staying with this assay, now noted: first compound 0.6325 µM.
On to `COCC1(CO)C(=O)C2CCN1CC2` (stereo not given) [PRIMA-1MET] + CC(C)C[C@H](NC(=O)[C@H](Cc1ccccc1)NC(=O)c1cnccn1)B(O)O [Bortezomib] (partner 0.002 µM), for which the relative viability was found to be 1.07.
Same read-out and setting: in the case of `COCC1(CO)C(=O)C2CCN1CC2` (stereo not given) [PRIMA-1MET] + C[C@@H](Oc1cc(-c2cnn(C3CCNCC3)c2)cnc1N)c1c(Cl)ccc(F)c1Cl [Crizotinib] (partner 1 µM) it was 0.892.

Staying with this assay, now noted: first compound 2 µM.
In the case of `COCC1(CO)C(=O)C2CCN1CC2` (stereo not given) [PRIMA-1MET] + CC(C)C[C@H](NC(=O)[C@H](Cc1ccccc1)NC(=O)c1cnccn1)B(O)O [Bortezomib] (partner 0.002 µM), the relative viability stood at 1.94.
Take `COCC1(CO)C(=O)C2CCN1CC2` (stereo not given) [PRIMA-1MET] + CC(=O)Nc1cccc(-n2c(=O)n(C3CC3)c(=O)c3c(Nc4ccc(I)cc4F)n(C)c(=O)c(C)c32)c1 [Trametinib] (partner 0.02 µM): the relative viability is 0.588.
Same read-out and setting: as for `COCC1(CO)C(=O)C2CCN1CC2` (stereo not given) [PRIMA-1MET] + Nc1ncn([C@H]2C[C@H](O)[C@@H](CO)O2)c(=O)n1 [Decitabine] (partner 2 µM), the figure is 0.57; as for `COCC1(CO)C(=O)C2CCN1CC2` (stereo not given) [PRIMA-1MET] + O=C(c1cc(Cc2n[nH]c(=O)c3ccccc23)ccc1F)N1CCN(C(=O)C2CC2)CC1 [Olaparib] (partner 8 µM), 0.95.
For `COCC1(CO)C(=O)C2CCN1CC2` (stereo not given) [PRIMA-1MET] + C[C@@H](Oc1cc(-c2cnn(C3CCNCC3)c2)cnc1N)c1c(Cl)ccc(F)c1Cl [Crizotinib] (partner 1 µM), the relative viability was determined as 0.738.

Still in this assay, the particulars now being: first compound 6.325 µM.
`COCC1(CO)C(=O)C2CCN1CC2` (stereo not given) [PRIMA-1MET] + CC(C)C[C@H](NC(=O)[C@H](Cc1ccccc1)NC(=O)c1cnccn1)B(O)O [Bortezomib] (partner 0.002 µM) displayed a relative viability of 1.02.
Still for that read-out and setting: as for `COCC1(CO)C(=O)C2CCN1CC2` (stereo not given) [PRIMA-1MET] + CC(=O)Nc1cccc(-n2c(=O)n(C3CC3)c(=O)c3c(Nc4ccc(I)cc4F)n(C)c(=O)c(C)c32)c1 [Trametinib] (partner 0.02 µM), the figure is 0.534; as for `COCC1(CO)C(=O)C2CCN1CC2` (stereo not given) [PRIMA-1MET] + Nc1ncn([C@H]2C[C@H](O)[C@@H](CO)O2)c(=O)n1 [Decitabine] (partner 2 µM), 0.731.
On the same count and under the same terms, as for `COCC1(CO)C(=O)C2CCN1CC2` (stereo not given) [PRIMA-1MET] + O=C(c1cc(Cc2n[nH]c(=O)c3ccccc23)ccc1F)N1CCN(C(=O)C2CC2)CC1 [Olaparib] (partner 8 µM), the figure is 1.07; as for `COCC1(CO)C(=O)C2CCN1CC2` (stereo not given) [PRIMA-1MET] + C[C@@H](Oc1cc(-c2cnn(C3CCNCC3)c2)cnc1N)c1c(Cl)ccc(F)c1Cl [Crizotinib] (partner 1 µM), 0.883.

Still in this assay, the particulars now being: first compound 20 µM.
The compound `COCC1(CO)C(=O)C2CCN1CC2` (stereo not given) [PRIMA-1MET] + CC(C)C[C@H](NC(=O)[C@H](Cc1ccccc1)NC(=O)c1cnccn1)B(O)O [Bortezomib] (partner 0.002 µM) had a relative viability of 1.24.
The same measure, in the same setting: in the case of `COCC1(CO)C(=O)C2CCN1CC2` (stereo not given) [PRIMA-1MET] + CC(=O)Nc1cccc(-n2c(=O)n(C3CC3)c(=O)c3c(Nc4ccc(I)cc4F)n(C)c(=O)c(C)c32)c1 [Trametinib] (partner 0.02 µM) it was 0.514; in that of `COCC1(CO)C(=O)C2CCN1CC2` (stereo not given) [PRIMA-1MET] + Nc1ncn([C@H]2C[C@H](O)[C@@H](CO)O2)c(=O)n1 [Decitabine] (partner 2 µM), 0.564.
